Measured values: ChEMBL document CHEMBL4261630
pIC50: −log10 of the molar value.

Tests used:
[1] = target: T1, Neuraminidase C (Streptococcus pneumoniae) (UniProt A0A0B7LH44); conditions: at 1 mM
T1 sequence (whole entry): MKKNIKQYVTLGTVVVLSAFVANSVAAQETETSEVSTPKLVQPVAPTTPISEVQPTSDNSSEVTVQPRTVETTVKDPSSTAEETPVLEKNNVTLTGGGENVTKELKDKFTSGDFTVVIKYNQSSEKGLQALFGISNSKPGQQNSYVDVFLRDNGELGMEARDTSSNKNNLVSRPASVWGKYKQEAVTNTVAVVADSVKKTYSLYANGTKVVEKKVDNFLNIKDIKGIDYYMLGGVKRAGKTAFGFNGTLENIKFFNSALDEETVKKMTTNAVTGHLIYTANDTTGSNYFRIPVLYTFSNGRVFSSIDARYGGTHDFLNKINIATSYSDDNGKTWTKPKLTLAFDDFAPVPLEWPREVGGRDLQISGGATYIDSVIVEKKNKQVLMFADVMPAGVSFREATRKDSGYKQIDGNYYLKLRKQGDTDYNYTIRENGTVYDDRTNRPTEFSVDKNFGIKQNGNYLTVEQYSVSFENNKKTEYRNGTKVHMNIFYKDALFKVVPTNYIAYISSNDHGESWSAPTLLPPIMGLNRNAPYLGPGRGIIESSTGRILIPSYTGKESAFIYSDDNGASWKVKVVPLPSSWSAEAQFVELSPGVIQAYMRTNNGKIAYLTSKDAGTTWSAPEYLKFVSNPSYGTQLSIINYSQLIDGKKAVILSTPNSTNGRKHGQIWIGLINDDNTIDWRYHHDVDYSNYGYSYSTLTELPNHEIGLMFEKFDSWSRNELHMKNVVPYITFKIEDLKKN

[2] = target: T2, Sialidase B (Streptococcus pneumoniae serotype 4 (strain ATCC BAA-334 / TIGR4)) (UniProt Q54727); conditions: at 1 mM
T2 sequence (whole entry): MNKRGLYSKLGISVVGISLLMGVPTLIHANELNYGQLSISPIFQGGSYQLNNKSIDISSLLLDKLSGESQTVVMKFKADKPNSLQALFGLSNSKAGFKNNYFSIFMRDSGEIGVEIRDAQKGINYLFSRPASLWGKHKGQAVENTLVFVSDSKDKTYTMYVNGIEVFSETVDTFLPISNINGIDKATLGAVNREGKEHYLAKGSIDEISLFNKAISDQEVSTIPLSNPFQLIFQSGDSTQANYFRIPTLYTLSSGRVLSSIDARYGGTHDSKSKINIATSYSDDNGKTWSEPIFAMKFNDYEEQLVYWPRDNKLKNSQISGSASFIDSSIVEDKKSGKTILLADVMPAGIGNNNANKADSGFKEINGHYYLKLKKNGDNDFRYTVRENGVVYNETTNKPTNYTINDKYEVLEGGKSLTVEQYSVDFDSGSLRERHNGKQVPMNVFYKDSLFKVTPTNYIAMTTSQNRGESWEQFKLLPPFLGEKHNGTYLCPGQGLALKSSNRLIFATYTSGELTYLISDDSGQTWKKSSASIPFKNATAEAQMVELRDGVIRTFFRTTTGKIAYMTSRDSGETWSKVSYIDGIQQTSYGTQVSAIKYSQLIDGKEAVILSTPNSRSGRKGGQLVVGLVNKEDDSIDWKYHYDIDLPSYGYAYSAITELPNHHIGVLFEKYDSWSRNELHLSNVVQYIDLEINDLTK

[3] = target: T3, Sialidase (Clostridium perfringens) (UniProt P10481); conditions: at 1 mM
T3 sequence (whole entry): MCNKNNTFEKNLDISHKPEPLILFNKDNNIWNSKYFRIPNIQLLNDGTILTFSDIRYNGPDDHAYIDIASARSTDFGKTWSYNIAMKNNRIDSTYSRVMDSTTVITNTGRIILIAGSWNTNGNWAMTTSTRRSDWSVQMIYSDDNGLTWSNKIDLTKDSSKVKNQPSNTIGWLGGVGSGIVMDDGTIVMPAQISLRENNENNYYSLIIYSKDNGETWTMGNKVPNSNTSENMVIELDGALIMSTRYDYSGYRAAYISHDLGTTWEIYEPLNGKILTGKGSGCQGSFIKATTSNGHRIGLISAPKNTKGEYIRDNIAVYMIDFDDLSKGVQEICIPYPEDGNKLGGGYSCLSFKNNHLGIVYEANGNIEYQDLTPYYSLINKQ

[4] = Inhibition of Arthrobacter ureafaciens sialidase using Neu5Acalpha2-3GalbetapNP as substrate after 30 mins by colorimetric assay; parameters: species or system Paenarthrobacter ureafaciens
[5] = target: Sialidase A (Streptococcus pneumoniae) (UniProt P62575); conditions: at 0.1 mM
[6] = test system: Paenarthrobacter ureafaciens; conditions: at 1 mM
Neuraminidase C = target: T4, Neuraminidase C (Streptococcus pneumoniae, UniProt A0A0B7LH44); experiment: Inhibition of Streptococcus pneumoniae sialidase NanC using Neu5Acalpha2-3GalbetapNP as substrate after 30 mins by colorimetric assay
T4 sequence (A0A0B7LH44 whole entry): T1 sequence (whole entry)

[7] = target: T3, Sialidase (Clostridium perfringens); conditions: at 0.1 mM
[8] = target: T2, Sialidase B (Streptococcus pneumoniae serotype 4 (strain ATCC BAA-334 / TIGR4)); conditions: at 0.1 mM
[9] = target: Sialidase A (Streptococcus pneumoniae) (UniProt P62575); conditions: at 1 mM
[10] = target: Sialidase (Vibrio cholerae serotype O1 (strain ATCC 39315 / El Tor Inaba N16961)) (UniProt P0C6E9); conditions: at 1 mM
Pasteurella multocida [11] = conditions: at 0.1 mM
[12] = target: Sialidase (Vibrio cholerae serotype O1 (strain ATCC 39315 / El Tor Inaba N16961)) (UniProt P0C6E9); conditions: at 0.1 mM
Pasteurella multocida [13] = conditions: at 1 mM
[14] = test system: Paenarthrobacter ureafaciens; conditions: at 0.1 mM
[15] = target: T1, Neuraminidase C (Streptococcus pneumoniae); conditions: at 0.1 mM
[16] = Inhibition of Pasteurella multocida sialyltransferase 1 using Neu5Acalpha2-3GalbetapNP as substrate after 30 mins by colorimetric assay
[17] = test system: Bifidobacterium longum subsp. infantis; conditions: ATCC 15697, at 0.1 mM
Sialidase = Sialidase (Vibrio cholerae serotype O1 (strain ATCC 39315 / El Tor Inaba N16961), UniProt P0C6E9); experiment: Inhibition of Vibrio cholerae sialidase using Neu5Acalpha2-3GalbetapNP as substrate after 30 mins by colorimetric assay
[18] = test system: Bifidobacterium longum subsp. infantis; conditions: ATCC 15697, at 1 mM
Sialidase B = target: T5, Sialidase B (Streptococcus pneumoniae serotype 4 (strain ATCC BAA-334 / TIGR4), UniProt Q54727); experiment: Inhibition of Streptococcus pneumoniae NanB using Neu5Acalpha2-3GalbetapNP as substrate after 30 mins by colorimetric assay
T5 sequence (Q54727 whole entry): T2 sequence (whole entry)

Sialidase A = Sialidase A (Streptococcus pneumoniae, UniProt P62575); experiment: Inhibition of Streptococcus pneumoniae NanA using Neu5Acalpha2-3GalbetapNP as substrate after 30 mins by colorimetric assay
[19] = Inhibition of Bifidobacterium longum subsp. infantis ATCC 15697 sialidase 2 (BiNanH2) using Neu5Acalpha2-3GalbetapNP as substrate after 30 mins by colorimetric assay

Sequence of Sialidase A (P62575 whole entry): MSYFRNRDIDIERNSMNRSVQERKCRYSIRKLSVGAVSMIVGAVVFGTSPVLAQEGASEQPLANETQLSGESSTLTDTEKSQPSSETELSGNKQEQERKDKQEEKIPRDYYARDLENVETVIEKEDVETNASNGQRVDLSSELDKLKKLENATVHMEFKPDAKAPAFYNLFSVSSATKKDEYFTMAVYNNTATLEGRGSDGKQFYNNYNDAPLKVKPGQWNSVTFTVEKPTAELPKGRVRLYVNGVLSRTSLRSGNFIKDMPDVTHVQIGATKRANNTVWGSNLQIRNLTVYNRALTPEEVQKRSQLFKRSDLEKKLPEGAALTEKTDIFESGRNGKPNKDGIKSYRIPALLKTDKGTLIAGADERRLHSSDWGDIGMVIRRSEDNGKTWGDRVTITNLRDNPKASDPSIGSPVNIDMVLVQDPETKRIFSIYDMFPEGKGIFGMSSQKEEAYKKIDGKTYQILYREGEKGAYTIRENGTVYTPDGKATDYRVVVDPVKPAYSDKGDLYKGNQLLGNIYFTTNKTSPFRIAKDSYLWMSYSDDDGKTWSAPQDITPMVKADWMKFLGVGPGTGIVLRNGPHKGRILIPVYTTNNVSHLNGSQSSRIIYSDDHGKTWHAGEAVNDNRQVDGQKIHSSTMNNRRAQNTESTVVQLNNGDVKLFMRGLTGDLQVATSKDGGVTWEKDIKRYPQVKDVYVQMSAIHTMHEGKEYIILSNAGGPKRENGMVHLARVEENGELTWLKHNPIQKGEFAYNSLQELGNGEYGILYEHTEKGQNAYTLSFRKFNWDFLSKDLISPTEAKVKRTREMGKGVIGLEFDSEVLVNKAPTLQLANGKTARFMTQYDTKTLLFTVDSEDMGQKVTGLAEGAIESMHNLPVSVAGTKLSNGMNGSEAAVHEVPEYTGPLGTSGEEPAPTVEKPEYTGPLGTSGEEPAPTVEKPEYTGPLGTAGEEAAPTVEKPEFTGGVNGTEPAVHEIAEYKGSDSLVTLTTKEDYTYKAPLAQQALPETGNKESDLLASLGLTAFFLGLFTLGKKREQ
Sequence of Sialidase A (Streptococcus pneumoniae) (P62575 whole entry): as above
Sequence of Sialidase (P0C6E9 whole entry, one chain of several): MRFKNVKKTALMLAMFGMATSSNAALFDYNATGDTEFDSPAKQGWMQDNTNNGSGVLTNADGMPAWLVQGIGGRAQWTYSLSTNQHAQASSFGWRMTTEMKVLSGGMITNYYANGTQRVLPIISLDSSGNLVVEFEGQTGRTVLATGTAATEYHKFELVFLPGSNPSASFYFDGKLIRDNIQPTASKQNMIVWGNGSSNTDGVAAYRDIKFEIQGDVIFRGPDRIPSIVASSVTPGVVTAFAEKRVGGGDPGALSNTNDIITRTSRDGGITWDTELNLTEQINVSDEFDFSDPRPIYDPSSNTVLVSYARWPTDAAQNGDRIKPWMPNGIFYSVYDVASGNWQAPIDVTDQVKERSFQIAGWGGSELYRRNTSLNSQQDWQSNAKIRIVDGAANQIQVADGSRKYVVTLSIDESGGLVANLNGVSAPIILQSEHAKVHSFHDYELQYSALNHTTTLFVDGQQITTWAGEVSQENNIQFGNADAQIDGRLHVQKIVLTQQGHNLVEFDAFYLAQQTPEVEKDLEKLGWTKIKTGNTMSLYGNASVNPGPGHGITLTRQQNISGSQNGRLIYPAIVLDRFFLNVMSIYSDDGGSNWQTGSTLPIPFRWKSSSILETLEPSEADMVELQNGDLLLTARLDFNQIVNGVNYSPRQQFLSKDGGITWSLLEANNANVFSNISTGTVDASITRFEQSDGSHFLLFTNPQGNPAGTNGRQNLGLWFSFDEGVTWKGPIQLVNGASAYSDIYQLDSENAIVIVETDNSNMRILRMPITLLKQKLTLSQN
Sequence of Sialidase (Vibrio cholerae serotype O1 (strain ATCC 39315 / El Tor Inaba N16961)) (P0C6E9 whole entry, one chain of several): as above

Compound `CC(=O)N[C@H]1[C@H]([C@H](O)[C@H](O)CO)OC(C(=O)O)=C[C@@H]1O` [NEU5AC2EN] has an inhibition [1] of 23.7%, an inhibition [2] of 31.9% and an inhibition [3] of 92.6%. The pIC50 [4] was 5.09, the inhibition [5] was 94.9% and the inhibition [6] was 99%. For the same compound, the pIC50 (Neuraminidase C) was under 3.00, the inhibition [7] was 72.1% and the inhibition [8] was 2.7%. The inhibition [9] was 99.9%, the inhibition [10] was 94.5% and the inhibition (Pasteurella multocida [11]) was 2.1%. It also gave an inhibition [12] of 88.2%, an inhibition (Pasteurella multocida [13]) of 9.3% and an inhibition [14] of 95.8%. The inhibition [15] was 6.3% and the pIC50 [16] was under 3.00.

In the case of `CC(=O)N[C@H]1[C@H]([C@H](O)[C@H](O)Cn2cc(C[C@H](N)C(=O)O)nn2)OC(C(=O)O)=C[C@@H]1O`, the inhibition [1] was 47.8%, the inhibition [2] was 35.5% and the inhibition [3] was 69.7%. For the same compound, the inhibition [17] was 0%, the pIC50 (Sialidase) was 4.87 and the inhibition [18] was 14.7%. It also gave an inhibition [5] of 42.9%, an inhibition [6] of 85.6% and a pIC50 (Sialidase B) of under 3.00. It also gave a pIC50 (Neuraminidase C) of under 3.00, an inhibition [7] of 17.6% and an inhibition [8] of 8.8%. The pIC50 (Sialidase A) was 3.00 to 4.00, the inhibition [9] was 84.4% and the inhibition [10] was 93.2%. For the same compound, the inhibition (Pasteurella multocida [11]) was 2.8%, the inhibition [12] was 82% and the inhibition (Pasteurella multocida [13]) was 9.1%. The pIC50 [19] was under 3.00, the inhibition [14] was 42.1% and the inhibition [15] was 15.3%. The pIC50 [16] was under 3.00.

For `CC(=O)N[C@H]1[C@H]([C@H](O)[C@H](O)CN=[N+]=[N-])OC(C(=O)O)=C[C@@H]1O`, the inhibition [1] was 39.2%, the inhibition [2] was 35.2% and the inhibition [3] was 89.3%. It also gave an inhibition [17] of 49.4%, a pIC50 (Sialidase) of 4.70 and a pIC50 [4] of 6.14. The inhibition [18] was 86.7%, the inhibition [5] was 78.6% and the inhibition [6] was 99.5%. The pIC50 (Sialidase B) was under 3.00, the pIC50 (Neuraminidase C) was under 3.00 and the inhibition [7] was 57.1%. For the same compound, the inhibition [8] was 6.6%, the pIC50 (Sialidase A) was 4.35 and the inhibition [9] was 98.8%. The inhibition [10] was 95.6%, the inhibition (Pasteurella multocida [11]) was 1.7% and the inhibition [12] was 86%. The inhibition (Pasteurella multocida [13]) was 14.9%, the pIC50 [19] was 3.00 to 4.00 and the inhibition [14] was 99.2%. It also gave an inhibition [15] of 13.4% and a pIC50 [16] of under 3.00.

Compound `CC(=O)N[C@H]1[C@H]([C@H](O)[C@H](O)Cn2cc(C[C@H](N)C(=O)N[C@H](CCC(=O)O)C(N)=O)nn2)OC(C(=O)O)=C[C@@H]1O` has an inhibition [1] of 29.7%, an inhibition [2] of 39% and an inhibition [3] of 84.6%. The inhibition [17] was 3.3%, the pIC50 (Sialidase) was 4.96 and the pIC50 [4] was 5.73. It also gave an inhibition [18] of 76.4%, an inhibition [5] of 61.9% and an inhibition [6] of 96.2%. It also gave a pIC50 (Sialidase B) of under 3.00, a pIC50 (Neuraminidase C) of under 3.00 and an inhibition [7] of 48.9%. It also gave an inhibition [8] of 12.6%, a pIC50 (Sialidase A) of 4.18 and an inhibition [9] of 94.7%. For the same compound, the inhibition [10] was 93.5%, the inhibition (Pasteurella multocida [11]) was 0.1% and the inhibition [12] was 85.8%. For the same compound, the inhibition (Pasteurella multocida [13]) was 6%, the inhibition [14] was 95.7% and the inhibition [15] was 13.5%. The pIC50 [16] was under 3.00.

For `CC(=O)N[C@H]1[C@H]([C@H](O)[C@H](O)Cn2cc(C[C@H](NC(=O)[C@@H](N)CCC(=O)O)C(=O)N[C@@H](CCCCN)C(=O)N[C@@H](CCC(=O)O)C(N)=O)nn2)OC(C(=O)O)=C[C@@H]1O`, the inhibition [1] was 9.8%, the pIC50 (Neuraminidase C) was under 3.00 and the pIC50 [19] was under 3.00. For the same compound, the pIC50 [16] was under 3.00.
